Values of other authors as cited in paper PMC2931793 (Journal of neuroscience methods, 2008).

Tested on: IDE
Settings: ref Song et al., 2001

Substance: Abz-GGFLRKGVQ-EDDnp
- Vmax of IDE-mediated cleavage: ~ 0.2 μmol min^−1 mg^−1

Substance: β-endorphin
- Vmax of IDE-mediated cleavage: 2.6 µmol/min/mg
